In patent publication US20250215016A1, “ISOXAZOLE-HETEROCYCLIC DERIVATIVE, PHARMACEUTICAL COMPOSITION AND USE” (SHANGHAI SIMR BIOTECHNOLOGY CO., LTD, priority 2022, published 2025):
pKi: −log10 of the molar value. Converted amounts (≈) assume the structure as drawn.

Assays:
[1] = biological target: human α5β3γ2 receptor (α5-GABAA receptor) (Homo sapiens (Human), UniProt P18507+P31644); assay: Radioligand (3H-flunitrazepam) competition binding assay, BZD site; details: 3H-flunitrazepam 1 nM; HEK293 membranes expressing human α5β3γ2
How it was run: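 Membranes from HEK293 cells stably expressing human α2β3γ2 or α5β3γ2 (5 μg protein/well) incubated 1 h at room temperature with 1 nM ^3H-flunitrazepam and 8-point 4-fold compound dilutions; nonspecific binding defined with 10 μM flumazenil. Filter-bound radioactivity counted; Ki derived from fitted IC50.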

[2] = Thermodynamic solubility in simulated intestinal fluid (FaSSIF); type: physicochemical; details: 37° C., 1000 rpm
Experimental: 50 mM of phosphate buffer, pH=7.4:0.39 g of NaH2PO4·2H2O, 1.4025 g of Na2HPO4 were weighed, placed into an Erlenmeyer flask, dissolved with the addition of 240 ml of water, homogenously mixed, adjusted to pH 7.4 with 10 M NaOH solution, transferred into a 250 ml volumetric flask and diluted with water to the scale.
Simulated intestinal fluid FaSSIF: 54.76 mg of FaSSIF-V2 (Biorelevant, batch. V2FAS-0619-A, lot. V2FAS01) was weighed, and added to 15 ml of buffer, and after dissolution, the solution was made up to 30 ml and left to stand at room temperature for 1 hour for use.
Waters e2695 HPLC high performance liquid chromatography, Mettler XSE105 analytical balance.
Stock solution containing 10 mM of each test compound was formulated using DMSO, diluted into […] standard curve solution using diluent (ACN:PB buffer with a volume ratio of 50:50), and tested by HPLC to obtain a standard curve of concentration vs peak area of each test compound.
Thermodynamic solubility in simulated intestinal fluid (TS in FaSSIF). About 0.3 mg of each sample (test compound) was weighed, added into 1.5 mL of FaSSIF solution, two samples in parallel, shaken at 1000 rpm and 37° C. for 4 hours, and filtered, 1 mL of primary filtrate was discarded, then 400 μL of subsequent filtrate was taken, and tested by using a high performance liquid chromatograph (UV).

[3] = simulated intestinal fluid (FaSSIF), thermodynamic from solid

SMILES: Cc1onc(-c2ccc(F)cc2)c1COc1ccc(-c2nnc3n2CCS(=O)(=O)C3)cn1 [Compound 7, 3-(6-((3-(4-fluorophenyl)-5-methylisoxazol-4-yl)methoxy)pyridin-3-yl)-5,6-dihydro-8H-[1,2,4]triazolo[3,4-c][1,4]thiazine 7,7-dioxide]
- pKi [1]: 8.67
- solubility thermodynamic at 4 h [2, 3]: 157 µg/mL (≈ 344 µM)

SMILES: Cc1onc(-c2ccc(F)cc2)c1COc1ccc(N2CCN3CCNC(=O)C3C2)nn1 (stereo not shown) [Compound 10, 8-(6-((3-(4-fluorophenyl)-5-methylisoxazol-4-yl)methoxy)pyridazin-3-yl) hexahydro-2H-pyrazino[1,2-a]pyrazin-1 (6H)-one]
- pKi [1]: 8.49
- solubility thermodynamic at 4 h [2, 3]: 19.4 µg/mL (≈ 44.1 µM)

SMILES: Cc1onc(-c2ccc(F)cc2)c1COc1ccc(-c2nnc3n2CCOC3)cn1 [Compound 17, 3-(6-((3-(4-fluorophenyl)-5-methylisoxazol-4-yl)methoxy)pyridin-3-yl)-5,6-dihydro-8H-[1,2,4]triazolo[3,4-c][1,4]oxazine]
- pKi [1]: 8.59
- solubility thermodynamic at 4 h [2, 3]: 33.1 µg/mL (≈ 81.2 µM)

SMILES: Cc1onc(-c2ccc(F)cc2)c1COc1ccc(-c2nnc3n2CCOC3)nn1 [Compound 18, 3-(6-((3-(4-fluorophenyl)-5-methylisoxazol-4-yl)methoxy)pyridazin-3-yl)-5,6-dihydro-8H-[1,2,4]triazolo[3,4-c][1,4]oxazine]
- pKi [1]: 9.49

SMILES: Cc1onc(-c2ccc(F)cc2)c1COc1cnc(-c2nnc3n2CCOC3)cn1 [Compound 19, 3-(5-((3-(4-fluorophenyl)-5-methylisoxazol-4-yl)methoxy)pyrazin-2-yl)-5,6-dihydro-8H-[1,2,4]triazolo[3,4-c][1,4]oxazine]
- pKi [1]: 8.79
- solubility thermodynamic at 4 h [2, 3]: 15.2 µg/mL (≈ 37.3 µM)

SMILES: Cc1onc(-c2ccc(F)cc2)c1COc1cnc(-c2nnc3n2CCC3)cn1 [Compound 23, 4-(((5-(6,7-dihydro-5H-pyrrolo[2,1-c][1,2,4]triazol-3-yl)pyrazin-2-yl)oxy)methyl)-3-(4-fluorophenyl)-5-methylisoxazole]
- pKi [1]: 8.51
- solubility thermodynamic at 4 h [2, 3]: 39.6 µg/mL (≈ 101 µM)

SMILES: Cc1onc(-c2ccc(F)cc2)c1COc1cnc(-c2nnc3n2CCCOC3)cn1 [Compound 24, 3-(5-((3-(4-fluorophenyl)-5-methylisoxazol-4-yl)methoxy)pyrazin-2-yl)-6,7-dihydro-5H,9H-[1,2,4]triazolo[3,4-c][1,4]oxazepane]
- pKi [1]: 8.17
- solubility thermodynamic at 4 h ([2]; simulated intestinal fluid FaSSIF, pH 7.4, thermodynamic from solid): 18.3 µg/mL (≈ 43.3 µM)

SMILES: Cc1onc(-c2ccc(F)cc2)c1COc1cnc(-c2nnc3n2CCOCC3)cn1 [Compound 33, 3-(5-((3-(4-fluorophenyl)-5-methylisoxazol-4-yl)methoxy)pyrazin-2-yl)-5,6,8,9-tetrahydro-[1,2,4]triazolo[4,3-d][1,4]oxazepane]
- pKi [1]: 8.01
- solubility thermodynamic at 4 h [2, 3]: 39.5 µg/mL (≈ 93.5 µM)

SMILES: Cc1onc(-c2ccc(F)cc2)c1COc1ccc(N2CCn3ccnc3C2=O)nn1 [Compound 37, 7-(6-((3-(4-fluorophenyl)-5-methylisoxazol-4-yl)methoxy)pyridazin-3-yl)-6,7-dihydroimidazo[1,2-a]pyrazin-8(5H)-one]
- pKi [1]: 8.27
- solubility thermodynamic at 4 h [2, 3]: 60.2 µg/mL (≈ 143 µM)

SMILES: Cc1onc(-c2ccc(F)cc2)c1COc1ccc(-c2cc3n(c(=O)n2)C[C@]24CO[C@H](CN32)C4)cn1 [Compound 38]
- pKi [1]: 8.65

SMILES: Cc1onc(-c2ccc(F)cc2)c1COc1ccc(-c2cc3n(c(=O)n2)CCN3C)cn1 [Compound 41, 7-(6-((3-(4-fluorophenyl)-5-methylisoxazol-4-yl)methoxy)pyridin-3-yl)-1-methyl-2,3-dihydroimidazo[1,2-c]pyrimidin-5(1H)-one]
- pKi [1]: 9.00
